Laboratory results from patent US11702418B2, “SOS1 inhibitors” (priority 2019, dated 2023).

Legend:
[1] = target: recombinant human SOS1 polypeptide (amino acids 560-1049) (Homo sapiens (Human), UniProt Q07889); assay: biochemical; assay type: binding; details: HTRF displacement, Cy5 labelled tracer, Morrison equation for competitive binding; read-out: Ki, Inhibition of Labeled Tracer Binding to SOS1
Experimental: The ability of a compound of Formula (I) to bind to SOS1 was measured using a HTRF displacement assay. […] After a 1-hour incubation at room temperature, the HTRF signal was measured using Clairostar plate reader (BMG Labtech) according to the manufacturer's instructions. Excitation filter EX-TR was used, and emission 1 was detected at 650-610 nm and emission 2 detected at 620-610 nm. The HTRF ratio was calculated using the formula: [emission 1/emission 2]*10000.
Background signals were calculated from well with a 10 μM inhibitor, known to inhibit 100% at that concentration. The background subtracted signals were converted to % binding relative to DMSO controls. Data were analyzed using XLFIT software (IDBS) using a Morrison equation for competitive binding and Ki's were generated compound of Formula (I).

pERK in MKN1 cells = assay: cells; assay type: cell-based; details: Homo sapiens, MKN-1, pERK inhibition, In-Cell Western; MKN1 or H358 cells (Table 24 does not say which); 0.5-1 hour incubation; read-out: IC50
[2] = system: pERK in RL95-2 cells (SOS1 N233Y); assay: pERK inhibition in SOS1 N233Y mutant RL95-2 cells (Example E); assay type: cell-based; details: Homo sapiens, RL95-2 cell line, 1 hour with compound
From the text: (§1) Three cell lines harboring SOS1 N233Y activation mutations, LXF289 (DSMZ, Leibniz Institute, Germany) RL95-2 (ATCC CRL-1671); and OCI AML-5 (DSMZ, Leibniz Institute, Germany) were used in the studies.

[3] = system: pERK in NCI-H1435 cells (NF-1 mutant); assay: pERK inhibition in NF-1 mutant NCI-H1435 cells (Example F); assay type: cell-based; details: NCI-H1435, 1 h, read-out: IC50, pERK inhibition
Experimental: (§2) The formaldehyde was discarded from the plates and 150 μL of ice-cold methanol was added to permeabilize the cells for 10 minutes at −20° C. The methanol was discarded from each of the plates and any liquid remaining in the plate by tapping the plate against paper towels. […] The plates were incubated overnight at 4° C. on a shaker.
(§3) On Assay day 2, the primary antibody solution was removed. […] The secondary antibody solution as removed and each plate was washed with PBST 3× times. Any liquid remaining was discarded and the plate was imaged using the Licor Odyssey machine according to the manufacturer's instruction, using a set focus length at 3 mm and both 800 nm and 700 nm filters. The GAPDH normalized scan values for each well were divided by the average of vehicle wells to get the % of pERK inhibition. The IC50 values were then calculated with the Graph pad Prism software.

[4] = system: pERK in LXF289 cells (SOS1 N233Y); assay: pERK inhibition in SOS1 N233Y mutant LXF289 cells (Example E); assay type: cell-based; details: Homo sapiens, LXF-289, LXF289 cell line, 1 hour with compound
From the text: as §1

[5] = system: pERK in Kasuma-1 (Kasumi) cells (NF-1 mutant); assay: pERK inhibition in NF-1 mutant Kasumi cells (Example F); assay type: cell-based; details: 1 h, read-out: IC50, pERK inhibition
Experimental: as §2, §3

[6] = system: pERK in OCI AML-5 cells (SOS1 N233Y); assay: pERK inhibition in SOS1 N233Y mutant OCI AML-5 cells (Example E); assay type: cell-based; details: Homo sapiens, OCI AML-5 cell line, 1 hour with compound
From the text: as §1

recombinant human SOS1 polypeptide (amino acids 560-1049), sequence (Q07889 560-1049): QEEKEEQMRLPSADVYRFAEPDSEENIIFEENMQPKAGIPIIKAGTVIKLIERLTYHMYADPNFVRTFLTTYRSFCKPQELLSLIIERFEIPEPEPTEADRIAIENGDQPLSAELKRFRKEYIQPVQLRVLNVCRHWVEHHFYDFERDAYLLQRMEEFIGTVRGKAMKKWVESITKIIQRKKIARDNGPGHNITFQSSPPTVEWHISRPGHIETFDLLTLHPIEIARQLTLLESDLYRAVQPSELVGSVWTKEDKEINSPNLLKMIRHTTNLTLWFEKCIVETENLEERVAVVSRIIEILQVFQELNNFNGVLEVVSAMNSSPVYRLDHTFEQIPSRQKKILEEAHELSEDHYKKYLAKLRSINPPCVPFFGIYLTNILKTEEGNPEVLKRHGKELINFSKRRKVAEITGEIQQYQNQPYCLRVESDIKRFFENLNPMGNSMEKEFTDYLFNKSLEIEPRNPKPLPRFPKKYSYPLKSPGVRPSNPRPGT

| Structure (SMILES) | Ki [1] [nM] | IC50 (pERK in MKN1 cells) [nM] | IC50 [2] [nM] | IC50 [3] [nM] | IC50 [4] [nM] | IC50 [5] [nM] | IC50 [6] [nM] |
| --- | --- | --- | --- | --- | --- | --- | --- |
| Cc1c([C@@H](C)Nc2nnc(C)c3ccc(N4CCn5nccc5C4)cc23)cccc1C(F)(F)F [Example 6-10, (R)-7-(6,7-dihydropyrazolo[1,5-a]pyrazin-5(4H)-yl)-4-methyl-N-(1-(2-methyl-3-(trifluoromethyl)phenyl)ethyl)phthalazin-1-amine] | < 0.01 | 271 | 214 | 542 | 294 | 902 | 333 |
| Cc1c([C@@H](C)Nc2nnc(C)c3ccc(N4CCN(C(=O)C5CC5)CC4)cc23)cccc1C(F)(F)F [Example 6-11, (R)-cyclopropyl(4-(1-methyl-4-((1-(2-methyl-3-(trifluoromethyl)phenyl)ethyl)amino)phthalazin-6-yl)piperazin-1-yl)methanone] | 9.1 | 31 | 20 | 65 | 41 | 97 | 32 |
